Test results as given in US20230190707A1, “COMPOSITIONS AND METHODS FOR ENHANCING CANCER IMMUNOTHERAPY” (FRED HUTCHINSON CANCER CENTER, priority 2020, published 2023).
Where two headings read alike, the source gives them in different places.

What was measured:
[1] = tested on: B16-F10, MB49, MC38, and CT26; test: RNA-seq splicing analysis, mouse tumor cell lines; format: cell-based; conditions: doses that did not affect tumor cell growth in vitro
Description: Unless otherwise specified, cell lines were treated with splicing inhibitors at the indicated concentrations for 96 hours in vitro, harvested and washed three times with PBS in excess to remove all drug, and then used for downstream analyses and/or subsequent studies, including phenotyping, RNA-seq analyses, continued growth in vitro, or tumor challenge in vivo into syngeneic animals.
Bulk lung and colon were homogenized using a Qiagen TissueRuptor. For all tissues and cell types, RNA was extracted using an RNeasy kit (Qiagen, Frederick, Md.) and quantified using a NanoDrop 8000 (ThermoFisher Scientific). A minimum of 500 ng of high-quality RNA (as determined by Agilent Bioanalyzer) per sample or replicate was used for library preparation. Poly(A)-selected, strand-specific (dUTP method) Illumina libraries were prepared with a modified TruSeq protocol and sequenced on the Illumina HiSeq 2000 (˜100M 2×101 bp paired-end reads per sample or replicate).
RNA-seq analysis was performed as previously described (Dvinge, H., et al. (2014). Sample processing obscures cancer-specific alterations in leukemic transcriptomes. Proc Natl Acad Sci USA 111, 16802-16807, incorporated herein by reference in its entirety). […] Aligned reads from these two mapping steps were merged to generate final BAM files for all subsequent analyses. […]

donor T cells = test: CFSE adoptive T cell transfer with in vivo splicing modulator treatment; conditions: mouse, in vivo
Description: Splenic T cells were obtained from B6 or CD45.1 donors by CD5 positive selection (Miltenyi Biotec, Cat. 130-049-301), labeled with CellTrace CFSE (ThermoFisher Cat. C34570) at 10 μM, and adoptively transferred by tail vein injection into lethally irradiated B6, Balb/c, or LP/J recipients, with […] labeled donor T cells transferred per recipient. All recipients were irradiated on day −1 prior to adoptive T cell transfer with 7 Gy as a single fraction and continuously received splicing inhibitor drugs or vehicle control at the indicated doses, from day −1 until day of sacrifice, with the initial dose of drug at least 4 hours after lethal irradiation. Indisulam and MS-023 were solubilized for in vivo administration and animals were treated as above. Pladienolide B (Tocris, Cat. 6070) and GEX1A (Cayman Chemicals, Cat. 25136) were both dissolved in vehicle (10% ethanol and 4% Tween-80 in sterile PBS) and administered i.p., with pladienolide B dosed at 10 mg/kg every other day, and GEX1A dosed at 1.25 mg/kg every four days. For in vivo use, EPZ015666 was dissolved in DMSO and solubilized in 0.5% methylcellulose in water to 20 mg/mL; animals were treated daily with 200 mg/kg by oral gavage.

OT-1 T cells = test: LAMP-1 T cell degranulation assay; format: cell-based, mouse; conditions: higher doses
Description: OT-1 cells were generated as described for the cytotoxicity assay and incubated with ovalbumin-expressing tumor cell lines (pre-treated overnight with IFNγ 100 U/mL to upregulate cell-surface MHC I) in the presence of DMSO or varying concentrations of splicing modulator drugs as indicated, in the presence of LAMP-1 antibody for 5-6 hours under standard incubator conditions. After the first hour of incubation, BD GolgiPlug™ (brefeldin A) and BD GolgiStop™ (monensin) was added at […] respectively into cells. At the end of incubation, cells were washed and stained for cell surface markers prior to standard flow cytometry.

[2] = tested on: bone marrow hematopoietic stem and progenitor cells; test: M3434 methylcellulose colony assay; format: cell-based, mouse
Description: 25,000 red blood cell-lysed bone marrow mononuclear cells from C57BL/6 mice were plated in duplicates or triplicates in each well of a non-tissue-culture treated 6 well plate with M3434 methylcellulose media in the presence of splicing drugs at the indicated concentrations as per manufacturer's instructions (StemCell Technologies, Cat. 03434) and incubated for seven days prior to quantification of colonies by manual microscopy.

[3] = tested on: CD8^+ T cell proliferation; test: Mixed leukocyte reaction with BMDCs loaded with lysates of drug-treated MC38 cells; format: cell-based, mouse; conditions: wild-type BMDCs loaded with lysates of treated MC38 cells; day 5
Description: RBC lysed bone marrow obtained from the femurs and tibias of C57BL/6 or P2 microglobulin deficient mice (Jackson Laboratories Cat. 2087) were cultured with mouse IL-3 (PeproTech Cat. 213-13) and mouse FLT3 ligand (PeproTech Cat. 250-31L) both at 10 ng/mL each in RPMI+10% FCS for 7 days to generate bone marrow derived dendritic cells. Separately, […] MC38 treated with splicing inhibitors vs. DMSO or expressing chicken ovalbumin were harvested, washed and resuspended in sterile PBS, and subjected to five cycles of rapid freeze-thaw (alternating between 37° C. and dry ice/acetone) to generate a cell lysate. After brief centrifugation at 100×g, the soluble fraction in PBS was added to bone marrow derived DCs and left to incubate overnight for antigen phagocytosis in the presence of LPS (ThermoFisher Cat. 00-4976-93). DCs were subsequently washed three times to remove cell-free lysates and LPS and incubated in a 1:1 ratio with CFSE-labeled B6 splenic T cells (10^5 stimulators with 10^5 responders) as described above. The MLR was analyzed at day 5 by flow cytometry.

Compound | splicing changes in mouse tumor cell lines [1] | in vivo T cell proliferation or activation in response to alloantigen (donor T cells) | ability of OT-1 T cells to degranulate intracellular cytolytic molecules (OT-1 T cells) | hematopoiesis (colony formation) ([2]; micromolar doses, pladienolide B at nanomolar concentrations) | CD8^+ T cell proliferation vs DMSO- or no lysate-pulsed control BMDCs [3] | hematopoiesis (colony formation) [2]
CC(C)Oc1ccc(-c2c[nH]cc2CN(C)CCN)cc1 [MS-023] | dramatic changes in both alternative and constitutive splicing | minimal impairment | did not inhibit | intact | more strongly promoted CD8^+ T cell proliferation | –
NS(=O)(=O)c1ccc(S(=O)(=O)Nc2cccc3c(Cl)c[nH]c23)cc1 [indisulam] | dramatic changes in both alternative and constitutive splicing | minimal impairment | did not inhibit | – | more strongly promoted CD8^+ T cell proliferation | intact
